US20260184663A1, “INDENE COMPOUNDS, PHARMACEUTICAL COMPOSITIONS THEREOF, AND THEIR THERAPEUTIC APPLICATIONS” (NucMito Pharmaceuticals co. Ltd., priority 2022, published 2026)
Where two headings read alike, the source gives them in different places.

Experiments:
Format in all cases: cell-based
[1] = tested on: HeLa (cervical cancer); test: Antiproliferative activity (CCK-8 cell viability), HeLa; conditions: Homo sapiens, 72 h, read-out: Antiproliferative activity in cancerous cells, HELA (inhibition of cell growth); for inhibition at 3.3 µM: Compound concentration: 3.3 μM; for inhibition at 10 µM: Compound concentration: 10 μM
Outline: (§1)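 Cells grown in DMEM (HepG2, SW480), MEM (HeLa) or F-12K (A549), each with 10% FBS, then exposed to compound at 3.3, 10 or 30 μM for 72 h at 37 °C. CCK-8 absorbance at 450 nm; viability expressed as percent of DMSO-treated cells, graded as growth inhibition bands.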

[2] = tested on: B16F10 (malignant melanoma); test: Antiproliferative activity (CCK-8 cell viability), B16F10; conditions: Mus musculus, 72 h, read-out: Antiproliferative activity in cancerous cells, B16F10 (inhibition of cell growth); for inhibition at 3.3 µM: B16-F10, Compound concentration: 3.3 μM; for inhibition at 10 µM: B16-F10, Compound concentration: 10 μM
Outline: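 B16F10 melanoma cells grown in DMEM with 10% FBS were plated in 96-well plates at 2,000-5,000 cells/well. After attachment they were exposed to compound in medium for 72 h at 37° C. CCK-8 solution (10 μL) was then added, and after 4 h at 37° C absorbance was read at 450 nm.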

[3] = tested on: A549 (lung adenocarcinoma); test: Antiproliferative activity (CCK-8 cell viability), A549; conditions: Homo sapiens, 72 h; for inhibition at 3.3 µM: Compound concentration: 3.3 μM; for inhibition at 10 µM: Compound concentration: 10 μM; for inhibition at 30 µM: Compound concentration: 30 μM
Outline: as §1

[4] = tested on: MDA-MB-231 (breast cancer); test: Antiproliferative activity (CCK-8 cell viability), MDA-MB-231; conditions: Homo sapiens, 72 h; for inhibition at 3.3 µM: Compound concentration: 3.3 μM; for inhibition at 10 µM: Compound concentration: 10 μM; for inhibition at 30 µM: Compound concentration: 30 μM
Outline: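 MDA-MB-231 breast cancer cells, grown in DMEM with 10% FBS, were plated in 96-well plates at 2,000-5,000 cells/well. Once attached, they were exposed to compound and incubated at 37° C. for 72 h. Viability was then measured with CCK-8 (10 μL per well, 4 h at 37° C.) by absorbance at 450 nm, relative to DMSO vehicle wells.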

[5] = tested on: HepG2 (liver cancer); test: Antiproliferative activity (CCK-8 cell viability), HepG2; conditions: Homo sapiens, 72 h; for inhibition at 3.3 µM: Compound concentration: 3.3 μM; for inhibition at 10 µM: Compound concentration: 10 μM; for inhibition at 30 µM: Compound concentration: 30 μM
Outline: as §1

[6] = tested on: SW480 (colon cancer); test: Antiproliferative activity (CCK-8 cell viability), SW480; conditions: Homo sapiens, 72 h; for inhibition at 3.3 µM: Compound concentration: 3.3 μM; for inhibition at 10 µM: Compound concentration: 10 μM; for inhibition at 30 µM: Compound concentration: 30 μM
Outline: as §1

[7] = tested on: A431 (epidermoid carcinoma); test: Antiproliferative activity (CCK-8 cell viability), A431; conditions: Homo sapiens, 72 h; for inhibition at 3.3 µM: A-431, Compound concentration: 3.3 μM; for inhibition at 10 µM: A-431, Compound concentration: 10 μM; for inhibition at 30 µM: A-431, Compound concentration: 30 μM
Outline: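 A431 epidermoid carcinoma cells grown in DMEM with 10% FBS were plated at 2,000-5,000 cells/well in 96-well plates. After attachment they were exposed to compound at 3.3 μM, 10 μM, or 30 μM for 72 h at 37° C. Viability was then assessed by CCK-8 against DMSO vehicle-treated wells.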

[8] = read-out: Antiproliferative activity in cancerous cells, A549 (inhibition of cell growth)
[9] = read-out: Antiproliferative activity in cancerous cells, MDA-MB-231 (inhibition of cell growth)
[10] = read-out: Antiproliferative activity in cancerous cells, HepG2 (inhibition of cell growth)
[11] = read-out: Antiproliferative activity in cancerous cells, SW480 (inhibition of cell growth)
[12] = read-out: Antiproliferative activity in cancerous cells, A431 (inhibition of cell growth)

SMILES	inhibition at 3.3 µM [1]	inhibition at 10 µM [1]	inhibition at 3.3 µM [2]	inhibition at 10 µM [2]	inhibition at 3.3 µM [3, 8]	inhibition at 10 µM [3, 8]	inhibition at 3.3 µM [4, 9]	inhibition at 10 µM [4, 9]	inhibition at 3.3 µM [5, 10]	inhibition at 10 µM [5, 10]	inhibition at 3.3 µM [6, 11]	inhibition at 10 µM [6, 11]	inhibition at 3.3 µM [7, 12]	inhibition at 10 µM [7, 12]	other results
COc1ccc2c(c1)C(CC(=O)O)=C(C)/C2=C/c1ccc(Oc2ccc(F)c(F)c2)cc1 [C75, (Z)-2-(1-(4-(3,4-Difluorophenoxy)benzylidene)-5-methoxy-2-methyl-1H-inden-3-yl)acetic acid]	≥ 50%	≥ 50%	≥ 50%	≥ 50%	30 to 50%	≥ 50%	≥ 50%	≥ 50%	< 30%	≥ 50%	< 30%	30 to 50%	≥ 50%	≥ 50%	
CC1=C(CC(=O)O)c2cc(F)ccc2/C1=C\c1ccc(COCc2ccc(C(F)F)cc2)cc1 [B152, (Z)-2-(1-(4-(((4-(Difluoromethyl)benzyl)oxy)methyl)benzylidene)-5-fluoro-2-methyl-1H-inden-3-yl)acetic acid]	< 30%	≥ 50%	< 30%	≥ 50%	< 30%	≥ 50%	< 30%	≥ 50%	< 30%	≥ 50%	30 to 50%	≥ 50%	30 to 50%	≥ 50%	
CC1=C(CCOC(=O)n2ccnc2)c2cc(F)ccc2/C1=C\c1ccc(Oc2ccc(F)cc2)cc1 [A204, (Z)-2-(5-Fluoro-1-(4-(4-fluorophenoxy)benzylidene)-2-methyl-1H-inden-3-yl)ethyl 1H-imidazole-1-carboxylate]	< 30%	< 30%	< 30%	< 30%	< 30%	< 30%	< 30%	< 30%	< 30%	< 30%	< 30%	< 30%	< 30%	< 30%	inhibition at 30 µM ([3]; read-out: Antiproliferative activity in cancerous cells, A549): 30 to 50%; inhibition at 30 µM ([4]; read-out: Antiproliferative activity in cancerous cells, MDA-MB-231): 30 to 50%; inhibition at 30 µM ([5]; read-out: Antiproliferative activity in cancerous cells, HepG2): < 30%; inhibition at 30 µM ([6]; read-out: Antiproliferative activity in cancerous cells, SW480): 30 to 50%; inhibition at 30 µM ([7]; read-out: Antiproliferative activity in cancerous cells, A431): < 30%
CC1=C(CC(=O)O)c2cc(F)ccc2/C1=C\c1ccc(CCOc2ccc(Cl)cc2)cc1 [B34, (Z)-2-(1-(4-(2-(4-Chlorophenoxy)ethyl)benzylidene)-5-fluoro-2-methyl-1H-inden-3-yl)acetic acid]	< 30%	≥ 50%	30 to 50%	≥ 50%	30 to 50%	≥ 50%	< 30%	< 30%	< 30%	≥ 50%	< 30%	≥ 50%	≥ 50%	≥ 50%	
CC1=C(CC(=O)O)c2cc(F)ccc2/C1=C\c1cccc(-c2ccc(C(F)(F)F)cc2)c1 [D1, (Z)-2-(5-Fluoro-2-methyl-1-((4′-(trifluoromethyl)-[1,1′-biphenyl]-3-yl)-methylene)-1H-inden-3-yl)acetic acid]	≥ 50%	≥ 50%	< 30%	≥ 50%	< 30%	≥ 50%	< 30%	≥ 50%	30 to 50%	≥ 50%	< 30%	≥ 50%	30 to 50%	≥ 50%	inhibition at 30 µM ([1]; Compound concentration: 30 μM): ≥ 50%; inhibition at 30 µM ([2]; B16-F10, Compound concentration: 30 μM): ≥ 50%; inhibition at 30 µM [3, 8]: ≥ 50%; inhibition at 30 µM [4, 9]: ≥ 50%; inhibition at 30 µM [5, 10]: ≥ 50%; inhibition at 30 µM [6, 11]: ≥ 50%; inhibition at 30 µM [7, 12]: ≥ 50%
CC1=C(CC(=O)O)c2cc(F)ccc2/C1=C\c1ccc(Oc2ccc(F)cc2Cl)cc1 [C68, (Z)-2-(1-(4-(2-Chloro-4-fluorophenoxy)benzylidene)-5-fluoro-2-methyl-1H-inden-3-yl)acetic acid]	< 30%	< 30%	< 30%	< 30%	< 30%	≥ 50%	< 30%	< 30%	< 30%	≥ 50%	≥ 50%	≥ 50%	30 to 50%	≥ 50%	
CC1=C(CC(=O)O)c2cc(Cl)ccc2/C1=C\c1ccc(CCCc2ccc(F)cc2)cc1 [B125, (Z)-2-(5-Chloro-1-(4-(3-(4-fluorophenyl)propyl)benzylidene)-2-methyl-1H-inden-3-yl)acetic acid]	≥ 50%	≥ 50%	≥ 50%	≥ 50%	< 30%	≥ 50%	30 to 50%	≥ 50%	≥ 50%	≥ 50%	< 30%	≥ 50%	≥ 50%	≥ 50%	
CC1=C(CC(=O)O)c2cc(Cl)ccc2/C1=C\c1ccc(COCc2ccc(Cl)cc2)cc1 [B115, (Z)-2-(5-Chloro-1-(4-(((4-chlorobenzyl)oxy)methyl)benzylidene)-2-methyl-1H-inden-3-yl)acetic acid]	< 30%	≥ 50%	30 to 50%	≥ 50%	30 to 50%	≥ 50%	< 30%	< 30%	≥ 50%	≥ 50%	< 30%	≥ 50%	≥ 50%	≥ 50%	
